Experimental data published in ChEMBL document CHEMBL1201862, “PubChem BioAssay data set” (2004).
Active and inactive are the calls of the source.

Experiments:
[1] = molecular target: Eukaryotic translation initiation factor 4H (Homo sapiens, UniProt Q15056); assay: eIF4H binding inhibition – biochemical, uHTS, fluorescence polarization, translation initiation inhibitor project, primary screen (AID 2012)
[2] = molecular target: Polyadenylate-binding protein 1 (Homo sapiens, UniProt P11940); assay: blockers of PABP interaction with poly(A) – biochemical, fluorescence polarization, […] (AID 2014)
Aspartyl aminopeptidase = Aspartyl aminopeptidase (Plasmodium falciparum 3D7, UniProt Q8I2J3)
Procathepsin L = Procathepsin L (Homo sapiens, UniProt P07711)
[3] = molecular target: T1, Heat shock factor protein 1 (Mus musculus, UniProt P38532); assay: decrease of HSF1-responsive luciferase luminescence – cell-based, NIH3T3, dose retest, confirmation (AID 2382); assay type: functional;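 further: NIH3T3 fibroblasts with HSF1-driven luciferase reporter stressed by proteasome inhibitor MG132; luminescence from HSF1-driven luciferase expression after 8 hours of MG132 stress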
T1 sequence (P38532 whole entry): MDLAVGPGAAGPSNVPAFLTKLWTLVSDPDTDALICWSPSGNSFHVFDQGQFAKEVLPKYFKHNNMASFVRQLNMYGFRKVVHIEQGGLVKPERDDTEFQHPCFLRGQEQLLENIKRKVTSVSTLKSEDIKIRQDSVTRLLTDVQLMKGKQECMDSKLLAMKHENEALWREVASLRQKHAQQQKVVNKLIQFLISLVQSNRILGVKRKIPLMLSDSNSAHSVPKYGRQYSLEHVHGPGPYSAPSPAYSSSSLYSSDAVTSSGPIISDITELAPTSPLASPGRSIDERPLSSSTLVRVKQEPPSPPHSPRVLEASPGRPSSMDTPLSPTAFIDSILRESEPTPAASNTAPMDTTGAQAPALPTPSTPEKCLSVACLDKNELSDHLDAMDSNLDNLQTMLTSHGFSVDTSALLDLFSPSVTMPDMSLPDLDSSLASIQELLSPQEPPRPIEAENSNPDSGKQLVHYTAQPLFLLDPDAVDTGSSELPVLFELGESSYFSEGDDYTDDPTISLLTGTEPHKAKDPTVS

Exodeoxyribonuclease V = molecular target: T2, Exodeoxyribonuclease V (Escherichia coli (strain K12), UniProt P04993+P07648+P08394); assay: RecBCD inhibition via phage-restricted bacterial growth – absorbance, V66 E. coli, mutant T4 phage, counter-screen for AddAB inhibitor project, dose response (AID 492957); assay type: functional, cell-based, Escherichia coli str. K-12 substr. MG1655
T2 sequence (P04993 whole entry): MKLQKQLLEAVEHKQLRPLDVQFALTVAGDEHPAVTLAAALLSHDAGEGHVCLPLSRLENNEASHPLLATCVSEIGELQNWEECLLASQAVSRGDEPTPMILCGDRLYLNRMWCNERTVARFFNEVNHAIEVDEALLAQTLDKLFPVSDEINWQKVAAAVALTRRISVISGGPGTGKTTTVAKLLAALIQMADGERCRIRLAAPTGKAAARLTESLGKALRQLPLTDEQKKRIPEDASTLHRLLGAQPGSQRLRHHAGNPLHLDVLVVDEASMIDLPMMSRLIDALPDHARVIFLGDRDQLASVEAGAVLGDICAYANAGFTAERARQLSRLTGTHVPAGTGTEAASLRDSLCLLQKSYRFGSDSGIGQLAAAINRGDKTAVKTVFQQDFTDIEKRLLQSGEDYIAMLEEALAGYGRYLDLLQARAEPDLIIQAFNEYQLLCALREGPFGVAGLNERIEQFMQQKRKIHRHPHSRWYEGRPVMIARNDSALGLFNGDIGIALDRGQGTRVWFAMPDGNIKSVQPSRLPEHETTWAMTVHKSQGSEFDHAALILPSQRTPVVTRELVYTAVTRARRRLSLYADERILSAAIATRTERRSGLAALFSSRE
T2 sequence (P07648 whole entry): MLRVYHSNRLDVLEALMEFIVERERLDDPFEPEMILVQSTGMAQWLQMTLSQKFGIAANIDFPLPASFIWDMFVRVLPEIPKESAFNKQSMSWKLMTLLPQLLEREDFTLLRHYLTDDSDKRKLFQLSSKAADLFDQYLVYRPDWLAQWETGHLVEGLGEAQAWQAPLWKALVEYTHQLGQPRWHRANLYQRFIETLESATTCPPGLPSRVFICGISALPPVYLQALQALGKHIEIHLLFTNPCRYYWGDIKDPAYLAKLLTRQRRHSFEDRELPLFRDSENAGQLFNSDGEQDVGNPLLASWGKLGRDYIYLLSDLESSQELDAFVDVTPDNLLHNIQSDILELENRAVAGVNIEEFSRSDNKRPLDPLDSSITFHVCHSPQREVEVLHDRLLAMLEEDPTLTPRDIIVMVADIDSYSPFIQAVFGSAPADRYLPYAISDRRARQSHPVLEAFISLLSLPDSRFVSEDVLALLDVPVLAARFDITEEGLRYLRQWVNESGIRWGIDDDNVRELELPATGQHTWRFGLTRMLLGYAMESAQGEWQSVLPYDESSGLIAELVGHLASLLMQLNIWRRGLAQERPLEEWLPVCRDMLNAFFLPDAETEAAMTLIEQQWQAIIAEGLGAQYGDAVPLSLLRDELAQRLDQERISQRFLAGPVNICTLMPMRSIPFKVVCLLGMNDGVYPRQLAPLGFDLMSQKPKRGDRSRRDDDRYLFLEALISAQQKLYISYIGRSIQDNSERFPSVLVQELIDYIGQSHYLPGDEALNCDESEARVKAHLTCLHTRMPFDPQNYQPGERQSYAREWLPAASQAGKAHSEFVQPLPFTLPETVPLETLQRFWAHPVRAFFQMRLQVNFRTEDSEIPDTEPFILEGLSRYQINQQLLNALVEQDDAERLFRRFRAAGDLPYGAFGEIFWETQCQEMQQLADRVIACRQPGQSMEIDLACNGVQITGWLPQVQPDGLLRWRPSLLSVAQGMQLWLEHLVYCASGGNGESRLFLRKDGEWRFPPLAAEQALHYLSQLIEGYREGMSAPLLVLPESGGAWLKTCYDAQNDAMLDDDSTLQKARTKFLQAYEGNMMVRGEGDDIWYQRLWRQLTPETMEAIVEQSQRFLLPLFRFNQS
T2 sequence (P08394 whole entry): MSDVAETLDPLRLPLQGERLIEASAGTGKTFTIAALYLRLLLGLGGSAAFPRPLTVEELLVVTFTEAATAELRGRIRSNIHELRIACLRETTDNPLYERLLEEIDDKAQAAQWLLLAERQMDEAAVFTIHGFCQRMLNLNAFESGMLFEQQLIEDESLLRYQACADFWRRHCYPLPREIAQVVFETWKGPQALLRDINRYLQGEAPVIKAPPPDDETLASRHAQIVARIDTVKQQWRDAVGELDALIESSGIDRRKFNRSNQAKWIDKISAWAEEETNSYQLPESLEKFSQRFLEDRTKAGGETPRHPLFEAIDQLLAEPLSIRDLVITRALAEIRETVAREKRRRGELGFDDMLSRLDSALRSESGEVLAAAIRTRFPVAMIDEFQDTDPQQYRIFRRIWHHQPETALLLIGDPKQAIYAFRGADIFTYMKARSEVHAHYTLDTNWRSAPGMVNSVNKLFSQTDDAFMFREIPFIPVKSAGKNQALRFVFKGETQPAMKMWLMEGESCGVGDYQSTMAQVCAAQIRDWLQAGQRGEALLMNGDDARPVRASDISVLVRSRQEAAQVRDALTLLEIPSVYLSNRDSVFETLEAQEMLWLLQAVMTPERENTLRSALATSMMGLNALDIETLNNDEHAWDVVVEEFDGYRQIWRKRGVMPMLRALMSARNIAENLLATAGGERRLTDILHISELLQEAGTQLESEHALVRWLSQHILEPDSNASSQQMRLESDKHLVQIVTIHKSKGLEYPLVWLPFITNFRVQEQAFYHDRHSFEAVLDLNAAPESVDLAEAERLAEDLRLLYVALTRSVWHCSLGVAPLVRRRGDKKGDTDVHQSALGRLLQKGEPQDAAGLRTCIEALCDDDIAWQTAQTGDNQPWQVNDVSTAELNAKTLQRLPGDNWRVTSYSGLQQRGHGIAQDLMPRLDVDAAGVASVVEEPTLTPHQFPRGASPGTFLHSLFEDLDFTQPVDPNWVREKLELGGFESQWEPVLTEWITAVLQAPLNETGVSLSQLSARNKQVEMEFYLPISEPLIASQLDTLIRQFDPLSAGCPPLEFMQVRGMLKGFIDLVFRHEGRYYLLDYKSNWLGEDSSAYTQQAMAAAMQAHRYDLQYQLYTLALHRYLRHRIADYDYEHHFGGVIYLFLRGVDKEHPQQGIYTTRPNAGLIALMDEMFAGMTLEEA

[4] = THP-1 cell cytotoxicity, dose response, cytotoxicity control for non-replicating M. tuberculosis project (AID 489025); assay type: functional
[5] = Counterscreen for AddAB inhibitors: absorbance-based bacterial cell-based high throughput dose response assay for inhibitors of bacterial viability. [Related pubchem assays (depositor defined):AID435030, AID449728, AID449731, AID488942, AID488955, AID488956]; assay type: functional
cells = assay type: functional
Cytochrome P450 3A4 = Cytochrome P450 3A4 (Homo sapiens, UniProt P08684); conditions: Potency;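 further: confirmatory qHTS run detecting inhibitors and substrates of CYP3A4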
Leucine aminopeptidase = molecular target: T3, Leucine aminopeptidase (Plasmodium falciparum 3D7, UniProt Q8IL11); assay: P. falciparum M17LAP inhibitors, primary screen, biochemical, fluorogenic H-Leu-NHMec substrate, 1536-well (AID 1619); assay type: functional
T3 sequence (Q8IL11 whole entry): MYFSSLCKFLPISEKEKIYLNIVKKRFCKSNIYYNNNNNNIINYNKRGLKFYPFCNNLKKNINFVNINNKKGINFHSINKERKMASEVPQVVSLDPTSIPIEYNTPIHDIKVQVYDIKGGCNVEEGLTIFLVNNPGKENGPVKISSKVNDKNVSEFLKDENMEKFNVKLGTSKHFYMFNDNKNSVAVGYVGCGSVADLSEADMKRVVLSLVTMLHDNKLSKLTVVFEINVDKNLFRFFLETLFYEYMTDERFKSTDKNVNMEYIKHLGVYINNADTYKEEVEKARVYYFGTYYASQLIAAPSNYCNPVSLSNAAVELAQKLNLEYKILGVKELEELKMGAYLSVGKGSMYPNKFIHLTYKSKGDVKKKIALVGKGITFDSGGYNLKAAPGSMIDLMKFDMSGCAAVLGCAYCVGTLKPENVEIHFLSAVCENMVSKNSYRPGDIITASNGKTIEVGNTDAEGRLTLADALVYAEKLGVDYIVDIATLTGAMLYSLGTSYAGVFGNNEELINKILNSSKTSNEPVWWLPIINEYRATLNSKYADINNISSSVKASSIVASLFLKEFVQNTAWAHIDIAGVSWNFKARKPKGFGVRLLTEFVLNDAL

[6] = molecular target: Photoreceptor-specific nuclear receptor (Homo sapiens, UniProt Q9Y5X4); assay type: functional;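 further: potency for compounds that break the NR2E3 corepressor complex and count as activators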
[7] = molecular target: Peroxisome proliferator-activated receptor gamma/Nuclear receptor coactivator 1 (Homo sapiens, UniProt P37231); assay: (§1) TR-FRET dose response biochemical High Throughput Screening assay for agonists of the steroid receptor coactivator 1 (SRC-1) recruitment by the peroxisome proliferator-activated receptor gamma (PPAR gamma): non-selective agonists. [Related pubchem assays (depositor defined):AID1300, AID1808, AID504735, AID631]; assay type: protein assay
[8] = molecular target: Peroxisome proliferator-activated receptor gamma/Nuclear receptor coactivator 3 (Homo sapiens, UniProt P37231); assay: as §1, with “3 (SRC-3)” for “1 (SRC-1)”, “assays: 1301 (Confirmation screen.), 1048 (Primary screen.)]” for “assays (depositor defined):AID1300, AID1808, AID504735, AID631]”; assay type: functional
[9] = molecular target: Peroxisome proliferator-activated receptor gamma/Nuclear receptor coactivator 2 (Homo sapiens, UniProt P37231); assay: TR-FRET dose response biochemical High Throughput Screening assay for agonists of the steroid receptor coactivator 2 (SRC-2) recruitment by the peroxisome proliferator-activated receptor gamma (PPAR gamma): non-selective agonists. [Related pubchem assays: 1297, 1032 ]; assay type: functional
[10] = molecular target: Peroxisome proliferator-activated receptor gamma/Nuclear receptor corepressor 2 (Homo sapiens, UniProt P37231+Q9Y618); assay type: functional
Cytochrome P450 2C9 = Cytochrome P450 2C9 (Homo sapiens, UniProt P11712); conditions: Potency
[11] = molecular target: Lysosomal acid glucosylceramidase (Homo sapiens, UniProt P04062); assay: Dose response cell-based high throughput screening assay to identify enhancers of beta-glucosidase activity. [Related pubchem assays: 784 ]; assay type: functional
[12] = molecular target: Acyl-homoserine lactone acylase PvdQ (Pseudomonas aeruginosa (strain LESB58), UniProt Q9I194); assay: PvdQ acylase enzyme activity blockers – biochemical, fluorescence, plate reader and imaging, cherry-picks, dose response (AID 493231)
Acyl-homoserine lactone acylase PvdQ, sequence (Q9I194 24-193 limits assumed): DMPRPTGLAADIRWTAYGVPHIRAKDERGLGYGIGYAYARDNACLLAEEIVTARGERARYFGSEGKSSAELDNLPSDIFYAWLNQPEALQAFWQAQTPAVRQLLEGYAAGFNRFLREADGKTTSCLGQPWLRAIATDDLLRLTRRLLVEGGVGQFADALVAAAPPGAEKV
Acyl-homoserine lactone acylase PvdQ, sequence (Q9I194 217-762 limits assumed): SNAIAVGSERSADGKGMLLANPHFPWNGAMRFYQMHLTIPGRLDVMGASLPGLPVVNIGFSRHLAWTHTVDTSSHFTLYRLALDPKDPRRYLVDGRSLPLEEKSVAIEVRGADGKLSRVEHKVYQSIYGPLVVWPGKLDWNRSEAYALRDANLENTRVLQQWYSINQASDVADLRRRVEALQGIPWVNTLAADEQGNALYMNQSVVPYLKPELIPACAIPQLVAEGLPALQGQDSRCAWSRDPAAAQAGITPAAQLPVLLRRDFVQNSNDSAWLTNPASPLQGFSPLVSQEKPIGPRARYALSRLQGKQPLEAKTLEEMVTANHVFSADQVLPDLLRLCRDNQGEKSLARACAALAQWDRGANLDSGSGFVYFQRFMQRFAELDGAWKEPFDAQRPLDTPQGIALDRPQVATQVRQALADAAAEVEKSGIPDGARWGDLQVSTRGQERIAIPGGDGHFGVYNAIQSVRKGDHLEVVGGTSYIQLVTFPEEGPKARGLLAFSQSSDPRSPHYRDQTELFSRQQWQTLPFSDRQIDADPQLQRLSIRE

Polyadenylate-binding protein 1, sequence (P11940 whole entry): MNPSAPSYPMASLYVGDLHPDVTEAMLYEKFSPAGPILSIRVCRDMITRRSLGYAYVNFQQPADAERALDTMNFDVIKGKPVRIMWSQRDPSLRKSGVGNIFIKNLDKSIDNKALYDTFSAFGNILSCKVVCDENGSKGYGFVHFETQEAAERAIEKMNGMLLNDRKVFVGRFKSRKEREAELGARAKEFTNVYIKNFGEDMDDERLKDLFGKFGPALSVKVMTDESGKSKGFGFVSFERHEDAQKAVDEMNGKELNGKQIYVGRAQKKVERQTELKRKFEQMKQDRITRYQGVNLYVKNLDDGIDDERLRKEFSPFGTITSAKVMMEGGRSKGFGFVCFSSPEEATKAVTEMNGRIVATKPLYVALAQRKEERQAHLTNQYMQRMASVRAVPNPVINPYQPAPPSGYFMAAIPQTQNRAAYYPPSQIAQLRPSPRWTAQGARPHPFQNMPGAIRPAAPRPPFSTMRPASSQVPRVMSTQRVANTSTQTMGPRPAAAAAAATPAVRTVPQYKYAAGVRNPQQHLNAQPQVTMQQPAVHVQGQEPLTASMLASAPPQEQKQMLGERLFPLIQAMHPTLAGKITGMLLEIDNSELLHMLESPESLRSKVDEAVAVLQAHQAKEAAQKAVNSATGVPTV
Procathepsin L, sequence (P07711 whole entry): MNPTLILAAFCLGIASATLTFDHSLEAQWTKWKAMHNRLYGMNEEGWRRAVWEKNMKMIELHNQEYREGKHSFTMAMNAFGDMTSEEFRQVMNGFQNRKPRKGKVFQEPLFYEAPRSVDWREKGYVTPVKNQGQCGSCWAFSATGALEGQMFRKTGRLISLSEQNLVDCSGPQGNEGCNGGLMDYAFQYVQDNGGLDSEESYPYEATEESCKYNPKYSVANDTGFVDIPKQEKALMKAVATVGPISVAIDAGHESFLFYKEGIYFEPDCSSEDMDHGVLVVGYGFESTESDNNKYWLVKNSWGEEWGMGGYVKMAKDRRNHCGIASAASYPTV
Peroxisome proliferator-activated receptor gamma/Nuclear receptor coactivator 2, sequence (P37231 whole entry): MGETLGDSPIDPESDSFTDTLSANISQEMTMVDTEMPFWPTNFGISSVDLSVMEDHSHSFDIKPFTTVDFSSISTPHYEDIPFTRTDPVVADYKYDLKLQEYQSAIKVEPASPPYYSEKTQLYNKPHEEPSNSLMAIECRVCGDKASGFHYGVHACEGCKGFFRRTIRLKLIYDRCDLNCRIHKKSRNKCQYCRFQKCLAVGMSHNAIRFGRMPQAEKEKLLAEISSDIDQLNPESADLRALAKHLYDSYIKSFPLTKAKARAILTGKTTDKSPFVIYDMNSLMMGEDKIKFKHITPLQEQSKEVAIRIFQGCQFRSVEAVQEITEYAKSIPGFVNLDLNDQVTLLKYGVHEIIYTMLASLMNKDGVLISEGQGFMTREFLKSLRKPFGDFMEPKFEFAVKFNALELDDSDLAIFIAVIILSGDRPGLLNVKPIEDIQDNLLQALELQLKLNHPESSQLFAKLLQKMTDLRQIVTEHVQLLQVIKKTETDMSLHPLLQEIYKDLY
Peroxisome proliferator-activated receptor gamma/Nuclear receptor coactivator 2, sequence (Q15596 whole entry, further chain): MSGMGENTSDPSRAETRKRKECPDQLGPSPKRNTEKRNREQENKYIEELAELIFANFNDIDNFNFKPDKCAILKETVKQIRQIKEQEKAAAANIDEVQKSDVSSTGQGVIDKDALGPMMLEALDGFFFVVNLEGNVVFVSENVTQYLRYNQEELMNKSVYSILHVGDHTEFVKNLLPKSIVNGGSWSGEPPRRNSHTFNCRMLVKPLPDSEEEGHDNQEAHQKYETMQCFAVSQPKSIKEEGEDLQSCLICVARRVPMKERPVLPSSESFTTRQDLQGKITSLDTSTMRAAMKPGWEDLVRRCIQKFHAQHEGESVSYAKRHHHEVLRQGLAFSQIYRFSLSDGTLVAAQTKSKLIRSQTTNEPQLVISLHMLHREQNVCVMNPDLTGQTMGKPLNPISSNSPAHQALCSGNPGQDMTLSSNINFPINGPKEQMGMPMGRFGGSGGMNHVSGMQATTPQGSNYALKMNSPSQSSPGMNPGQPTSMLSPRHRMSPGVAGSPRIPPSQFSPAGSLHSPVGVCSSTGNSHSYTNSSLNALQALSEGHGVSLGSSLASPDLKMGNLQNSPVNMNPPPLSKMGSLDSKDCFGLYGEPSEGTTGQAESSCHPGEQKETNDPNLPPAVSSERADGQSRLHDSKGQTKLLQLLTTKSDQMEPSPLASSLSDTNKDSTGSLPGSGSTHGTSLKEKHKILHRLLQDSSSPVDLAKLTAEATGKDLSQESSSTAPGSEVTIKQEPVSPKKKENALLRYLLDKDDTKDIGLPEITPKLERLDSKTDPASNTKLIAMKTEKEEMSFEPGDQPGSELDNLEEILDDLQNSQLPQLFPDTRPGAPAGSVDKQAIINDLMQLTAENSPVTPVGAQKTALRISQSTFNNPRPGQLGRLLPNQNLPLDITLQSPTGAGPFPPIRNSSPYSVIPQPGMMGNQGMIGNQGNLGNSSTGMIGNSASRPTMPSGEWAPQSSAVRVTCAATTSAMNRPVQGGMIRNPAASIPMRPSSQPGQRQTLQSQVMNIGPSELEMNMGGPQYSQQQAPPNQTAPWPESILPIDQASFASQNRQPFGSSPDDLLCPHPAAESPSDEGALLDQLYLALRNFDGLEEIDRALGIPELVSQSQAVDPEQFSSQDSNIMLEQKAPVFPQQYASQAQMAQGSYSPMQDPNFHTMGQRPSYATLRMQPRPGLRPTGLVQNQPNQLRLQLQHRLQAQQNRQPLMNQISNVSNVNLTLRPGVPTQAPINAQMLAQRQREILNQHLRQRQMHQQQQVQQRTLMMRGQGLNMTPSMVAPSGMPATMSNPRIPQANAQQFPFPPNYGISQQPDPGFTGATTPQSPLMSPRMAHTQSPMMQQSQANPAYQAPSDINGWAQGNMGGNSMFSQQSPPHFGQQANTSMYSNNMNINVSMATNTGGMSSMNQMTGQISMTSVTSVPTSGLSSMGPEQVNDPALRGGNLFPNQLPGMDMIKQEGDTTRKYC
Aspartyl aminopeptidase, sequence (Q8I2J3 whole entry): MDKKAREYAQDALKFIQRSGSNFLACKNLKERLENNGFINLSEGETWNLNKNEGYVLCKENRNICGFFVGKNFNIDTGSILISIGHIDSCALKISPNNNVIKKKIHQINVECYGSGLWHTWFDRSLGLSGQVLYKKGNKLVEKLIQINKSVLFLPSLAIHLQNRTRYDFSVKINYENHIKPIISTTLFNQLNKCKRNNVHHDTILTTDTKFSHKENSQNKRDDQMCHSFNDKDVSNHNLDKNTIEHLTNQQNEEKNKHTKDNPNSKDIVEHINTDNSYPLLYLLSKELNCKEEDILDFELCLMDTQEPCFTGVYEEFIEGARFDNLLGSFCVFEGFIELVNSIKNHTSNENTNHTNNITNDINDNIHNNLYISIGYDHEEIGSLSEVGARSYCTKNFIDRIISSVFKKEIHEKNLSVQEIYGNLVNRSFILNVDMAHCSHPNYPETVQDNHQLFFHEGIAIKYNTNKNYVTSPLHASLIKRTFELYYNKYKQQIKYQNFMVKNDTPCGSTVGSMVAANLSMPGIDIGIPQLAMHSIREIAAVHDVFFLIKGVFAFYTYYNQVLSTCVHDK
Cytochrome P450 2C9, sequence (P11712 whole entry): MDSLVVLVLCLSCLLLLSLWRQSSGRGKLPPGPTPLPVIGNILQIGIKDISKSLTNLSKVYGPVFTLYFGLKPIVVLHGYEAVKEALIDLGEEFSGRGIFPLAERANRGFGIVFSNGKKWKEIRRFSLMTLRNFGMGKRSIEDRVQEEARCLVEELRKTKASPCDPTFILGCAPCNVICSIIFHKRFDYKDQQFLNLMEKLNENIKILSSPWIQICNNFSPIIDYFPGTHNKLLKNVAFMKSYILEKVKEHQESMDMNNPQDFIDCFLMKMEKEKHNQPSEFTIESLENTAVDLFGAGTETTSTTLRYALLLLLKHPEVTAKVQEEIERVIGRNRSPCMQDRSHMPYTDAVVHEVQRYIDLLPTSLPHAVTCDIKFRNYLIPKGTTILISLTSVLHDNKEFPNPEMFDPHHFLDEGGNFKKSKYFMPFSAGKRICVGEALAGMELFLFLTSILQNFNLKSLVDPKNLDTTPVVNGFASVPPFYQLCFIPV

With Cn1c(SCC(=O)NC(C)(C)C)nnc1-c1cccc(NC(=O)c2ccccc2F)c1 the IC50 [1] was > 100 µM (inactive) and the IC50 [2] was 7.07 µM (active).

In the case of Cc1c(C(=O)c2no[n+]([O-])c2C(=O)c2cnn(C)c2C)cnn1C, the IC50 (Aspartyl aminopeptidase) is reported as 1.58 µM (active), the IC50 (Procathepsin L) is reported as > 59.6 µM (not active) and the EC50 [3] is reported as 5.9 µM (active).

For NC(=NOC(=O)c1ccc(Cl)cc1)c1ncc([N+](=O)[O-])s1, the IC50 (Exodeoxyribonuclease V) was > 119 µM (inactive), the CC50 [4] was > 40 µM (active) and the IC50 [5] was 118 µM (inactive). The IC50 (cells) was 19.2 µM (active).

For Nc1ccc(Cl)cc1Cl, the AC50 (Cytochrome P450 3A4) was 31.6 µM (inconclusive).

With Cn1c(=S)[nH]c2c(c1=O)C(C)(C)Cc1ccccc1-2 the IC50 (Leucine aminopeptidase) was 1.9 µM (active), the IC50 [6] was > 39.8 µM (not active) and the EC50 [7] was > 79.4 µM (inactive). The EC50 [8] was > 79.4 µM (not active), the EC50 [9] was > 79.4 µM (not active) and the IC50 [10] was 3.98 µM (active).

With C[C@]12C=CC(=O)C=C1CC[C@@H]1[C@H]3C[C@@H](O)[C@](O)(C(=O)CO)[C@]3(C)C[C@H](O)[C@]12F the AC50 (Cytochrome P450 2C9) was 25.1 µM (inconclusive).

In the case of Cc1cccn2c(=O)c(/C=N/c3ccc(Cl)cc3)c(NCCO)nc12, the EC50 [11] is reported as > 50 µM (not active).

With CCOC(=O)c1ccc(N2Cc3ccccc3C2)cc1O the AC50 [12] was > 100 µM (inactive).
